Measurements reported in patent US10010547B2 (CASCADIAN THERAPEUTICS, INC., priority 2014, dated 2018).
Like-named read-outs stand apart in the source and are kept apart here.

What was measured:
MIA PaCa-2 cells = assay: Gemcitabine Combination Cell Assay (Cell Titer Glo); format: cell-based; details: MIA PaCa-2 cells, 72 h; for IC50: Homo sapiens, Chk1 inhibitor alone, read-out: Chk1 IC50; for 10xLS: approximate concentration of Chk1 inhibitor that results in a 10-fold reduction in the IC50 of gemcitabine alone; for 2xLS: approximate concentration of Chk1 inhibitor that results in a two-fold reduction in the IC50 of gemcitabine alone
Experimental: Gemcitabine Combination Cell Assay
Exponentially growing MIA PaCa-2 (ATCC CRL-1420) cells are treated with trypsin to remove cells from the plate surface. Approximately 10,000 cells/well are plated in 96 well plates in RPMI containing 10% fetal bovine serum, 1% sodium pyruvate and 1% L-GlutaMax. Cells are allowed to adhere to the plate surface overnight. Serial half-log dilutions of Chk1 inhibitor test compounds and gemcitabine are made with a final highest concentration of 3000 nM and 100 nM, respectively. Chk1 inhibitors and gemcitabine are combined so that each concentration of Chk1 inhibitor is added to each concentration of gemcitabine. Each drug is also tested as a single agent. Drugs are added to adherent cells (in duplicate) and incubated for 72 h. At 72 h the cells are treated with Promega Cell Titer Glo reagent for approximately 15 minutes. Luminescence (relative light units, RLU) is recorded using a BMG Polarstar Omega plate reader. The single agent concentration that results in a 50% reduction in total signal (IC50) is calculated using PRISM software and a four-parameter non-linear regression curve fit. For combination studies the RLUs are plotted using PRISM on an XY plot with the gemcitabine concentration on the X axis and RLU on the Y axis. The RLU for each concentration of Chk1 inhibitor is plotted as a function of gemcitabine concentration. The IC50 for gemcitabine alone and at each concentration of Chk1 is determined using a four-parameter non-linear regression curve fit. The approximate concentration of Chk1 inhibitor that results in a two and ten-fold reduction in the IC50 of gemcitabine alone is calculated as an indication of synergistic potency.
From the results obtained by following the above protocol, the IC50 values against MIAPaca-2 cells of the Chk1 inhibitor alone (Chk1 IC50), the approximate concentration of Chk1 inhibitor that results in a two-fold (2×LS) and a 10-fold (10×LS) reduction in the IC50 of gemcitabine alone of each of the compounds of Examples 1-154 are shown in Table 4.

Chk-1 kinase = Chk-1 kinase (Homo sapiens (Human), UniProt O14757); assay: Chk-1 Kinase Inhibiting Activity (33P-ATP filter assay, CHKtide substrate); format: biochemical
Chk-1 kinase, sequence (O14757 whole entry): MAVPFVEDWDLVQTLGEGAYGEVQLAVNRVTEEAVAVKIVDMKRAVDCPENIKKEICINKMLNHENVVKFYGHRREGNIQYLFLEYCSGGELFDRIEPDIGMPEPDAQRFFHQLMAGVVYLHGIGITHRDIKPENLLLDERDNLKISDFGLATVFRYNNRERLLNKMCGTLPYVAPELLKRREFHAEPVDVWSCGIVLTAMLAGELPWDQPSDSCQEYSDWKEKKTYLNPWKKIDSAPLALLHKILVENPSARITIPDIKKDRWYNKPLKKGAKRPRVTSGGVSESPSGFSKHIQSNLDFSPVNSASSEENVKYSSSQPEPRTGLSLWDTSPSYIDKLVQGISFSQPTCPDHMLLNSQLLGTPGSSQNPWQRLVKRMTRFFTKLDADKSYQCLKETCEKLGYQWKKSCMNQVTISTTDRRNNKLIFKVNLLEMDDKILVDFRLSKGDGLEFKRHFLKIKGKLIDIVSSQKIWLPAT
Experimental: Chk-1 Kinase Inhibiting Activity
The compounds of the invention were tested for activity against Chk-1 kinase using the materials and protocols set out below.
Base Reaction buffer: 20 mM Hepes (pH 7.5), 10 mM MgCl2, 1 mM EGTA, 0.02% Brij35, 0.02 mg/ml BSA, 0.1 mM Na3VO4, 2 mM DTT, 1% DMSO
*Required cofactors are added individually to each kinase reaction
(i) Prepare indicated substrate in freshly prepared Base Reaction Buffer
(ii) Deliver any required cofactors to the substrate solution above
(iii) Deliver indicated kinase into the substrate solution and gently mix
(iv) Deliver compounds in DMSO into the kinase reaction mixture
(v) Deliver ^33P-ATP (specific activity 0.01 μCi/μl final) into the reaction mixture to initiate the reaction.
(vi) Incubate kinase reaction for 120 minutes at room temperature
(vii) Reactions are spotted onto P81 ion exchange paper (Whatman #3698-915)
(viii) Wash filters extensively in 0.1% phosphoric acid.
(ix) Dry filters and measure counts in scintillation counter
Recombinant full length construct, N-terminal GST tagged, purified from insect cells.
No special measures were taken to activate this kinase.
Final concentration in assay=0.5 nM
Peptide sequence: [[…]]
Final concentration in assay=20 μM
No additional cofactors are added to the reaction mixture
From the results obtained by following the above protocol, the IC50 values against Chk-1 kinase of each of the compounds of Examples 1-153 were determined and these are shown in Table 3.

[1] = against Chk-1 kinase, read-out: IC50

COc1cc(CN(C)C2CCOCC2)ccc1-c1cc(Nc2cnc(C#N)cn2)n[nH]1 [Example 63, 5-[[5-[2-methoxy-4-[[methyl(tetra hydropyran-4-yl)amino]methyl]phenyl]-1H-pyrazol-3-yl]amino]pyrazine-2-carbonitrile]
IC50 (MIA PaCa-2 cells): 600 nM | 10xLS (MIA PaCa-2 cells): 100 nM | 2xLS (MIA PaCa-2 cells): <3 nM | IC50 (Chk-1 kinase; [1]): 0.052 nM

CCN1CCN(c2cc(F)c(-c3cc(Nc4cnc(C#N)cn4)n[nH]3)c(OC)c2)CC1 [Example 136, 5-[[5-[4-(4-ethylpiperazin-1-yl)-2-fluoro-6-methoxy-phenyl]-1H-pyrazol-3-yl]amino]pyrazine-2-carbonitrile]
IC50 (MIA PaCa-2 cells): 228 nM | 10xLS (MIA PaCa-2 cells): 100 nM | 2xLS (MIA PaCa-2 cells): 3 nM | IC50 (Chk-1 kinase; [1]): 0.053 nM

COc1cc(C2CCNCC2)ccc1-c1cc(Nc2cnc(Cl)cn2)n[nH]1 [Example 43, 5-chloro-N-[5-[2-methoxy-4-(4-piperidyl)phenyl]-1H-pyrazol-3-yl]pyrazin-2-amine]
IC50 (MIA PaCa-2 cells): 1330 nM | 10xLS (MIA PaCa-2 cells): 1000 nM | 2xLS (MIA PaCa-2 cells): 100 nM | IC50 (Chk-1 kinase; [1]): 0.73 nM

COc1cc(OCC2CCCN2C)ccc1-c1cc(Nc2cnc(C#N)cn2)n[nH]1 (stereo not drawn) [Example 35, 5-[[5-[2-methoxy-4-[(1-methylpyrrolidin-2-yl)methoxy]phenyl]-1H-pyrazol-3-yl]amino]pyrazine-2-carbonitrile]
IC50 (MIA PaCa-2 cells): 217 nM | 10xLS (MIA PaCa-2 cells): 100 nM | 2xLS (MIA PaCa-2 cells): 3 nM | IC50 (Chk-1 kinase; [1]): 0.14 nM

COc1cc(NCc2ccccc2)cc(OC)c1-c1cc(Nc2cnc(C#N)cn2)n[nH]1 [Example 1, 5-[5-(4-Benzylamino-2,6-dimethoxy-phenyl)-1H-pyrazol-3-ylamino]-pyrazine-2-carbonitrile]
IC50 (MIA PaCa-2 cells): 5390 nM | 10xLS (MIA PaCa-2 cells): 1000 nM | 2xLS (MIA PaCa-2 cells): 100 nM | IC50 (Chk-1 kinase; [1]): 2.8 nM

COc1cc(OC2CCNCC2)ccc1-c1cc(Nc2cnc(C#N)cn2)n[nH]1 [Example 57, 5-[[5-[2-methoxy-4-(4-piperidyloxy)phenyl]-1H-pyrazol-3-yl]amino]pyrazine-2-carbonitrile]
IC50 (MIA PaCa-2 cells): 337 nM | 10xLS (MIA PaCa-2 cells): 100 nM | 2xLS (MIA PaCa-2 cells): 3 nM | IC50 (Chk-1 kinase; [1]): 0.071 nM

COc1cc(N(C)CC2CCN(C(C)C)CC2)ccc1-c1cc(Nc2cnc(C#N)cn2)n[nH]1 [Example 148, 5-[[5-[4-[(1-isopropyl-4-piperidyl)methyl-methyl-amino]-2-methoxy-phenyl]-1H-pyrazol-3-yl]amino]pyrazine-2-carbonitrile]
IC50 (MIA PaCa-2 cells): 254 nM | 10xLS (MIA PaCa-2 cells): <100 nM | 2xLS (MIA PaCa-2 cells): <3 nM | IC50 (Chk-1 kinase; [1]): 0.031 nM

CCN1CC[C@H](OCc2ccc(-c3cc(Nc4cnc(C#N)cn4)n[nH]3)c(OC)c2)C1 [Example 138, 5-[[5-[4-[[(3S)-1-ethylpyrrolidin-3-yl]oxymethyl]-2-methoxy-phenyl]-1H-pyrazol-3-yl]amino]pyrazine-2-carbonitrile]
IC50 (MIA PaCa-2 cells): 836 nM | 10xLS (MIA PaCa-2 cells): 300 nM | 2xLS (MIA PaCa-2 cells): <10 nM | IC50 (Chk-1 kinase; [1]): 0.041 nM

COc1cc(NC2CCN(C(C)C)CC2)ccc1-c1cc(Nc2cnc(C#N)cn2)n[nH]1 [Example 112, 5-[[5-[4-[(1-isopropyl-4-piperidyl)amino]-2-methoxy-phenyl]-1H-pyrazol-3-yl]amino]pyrazine-2-carbonitrile]
IC50 (MIA PaCa-2 cells): 253 nM | 10xLS (MIA PaCa-2 cells): 100 nM | 2xLS (MIA PaCa-2 cells): <3 nM | IC50 (Chk-1 kinase; [1]): 0.0042 nM

COc1cc(CNC(C)(C)CN2CCOCC2)ccc1-c1cc(Nc2cnc(C#N)cn2)n[nH]1 [Example 19, 5-[[5-[4-[[(1,1-dimethyl-2-morpholino-ethyl)amino]methyl]-2-methoxy-phenyl]-1H-pyrazol-3-yl]amino]pyrazine-2-carbonitrile]
IC50 (MIA PaCa-2 cells): 1610 nM | 10xLS (MIA PaCa-2 cells): ~200 nM | 2xLS (MIA PaCa-2 cells): 3 nM | IC50 (Chk-1 kinase; [1]): 0.29 nM

COC(=O)c1cnc(Nc2cc(-c3ccc(C4CCNCC4)cc3OC)[nH]n2)cn1 [Example 71, methyl 5-[[5-[2-methoxy-4-(4-piperidyl)phenyl]-1H-pyrazol-3-yl]amino]pyrazine-2-carboxylate]
IC50 (MIA PaCa-2 cells): > 3000 nM | 10xLS (MIA PaCa-2 cells): >3000 nM | 2xLS (MIA PaCa-2 cells): >3000 nM | IC50 (Chk-1 kinase; [1]): > 100 nM

COc1cc(C2CCNCC2)ccc1-c1cc(Nc2cnc(C)cn2)n[nH]1 [Example 55, N-[5-[2-methoxy-4-(4-piperidyl)phenyl]-1H-pyrazol-3-yl]-5-methyl-pyrazin-2-amine]
IC50 (MIA PaCa-2 cells): > 3000 nM | 10xLS (MIA PaCa-2 cells): >3000 nM | 2xLS (MIA PaCa-2 cells): 1000 nM | IC50 (Chk-1 kinase; [1]): 227 nM

COc1cc(C2CCN(CC(N)=O)CC2)ccc1-c1cc(Nc2cnc(C#N)cn2)n[nH]1 [Example 62, 2-[4-[4-[3-[(5-cyanopyrazin-2-yl)amino]-1H-pyrazol-5-yl]-3-methoxy-phenyl]-1-piperidyl]acetamide]
IC50 (MIA PaCa-2 cells): 875 nM | 10xLS (MIA PaCa-2 cells): 300 nM | 2xLS (MIA PaCa-2 cells): 10 nM | IC50 (Chk-1 kinase; [1]): 0.084 nM

COc1cc(OCC2CCNCC2)ccc1-c1cc(Nc2cnc(C#N)cn2)n[nH]1 [Example 36, 5-[[5-[2-methoxy-4-(4-piperidylmethoxy)phenyl]-1H-pyrazol-3-yl]amino]pyrazine-2-carbonitrile]
IC50 (MIA PaCa-2 cells): 281 nM | 10xLS (MIA PaCa-2 cells): 100 nM | 2xLS (MIA PaCa-2 cells): 3 nM | IC50 (Chk-1 kinase; [1]): 0.095 nM

COc1cc(NCC2CCOCC2)ccc1-c1cc(Nc2cnc(C#N)cn2)n[nH]1 [Example 74, 5-[[5-[2-methoxy-4-(tetrahydropyran-4-ylmethylamino)phenyl]-1H-pyrazol-3-yl]amino]pyrazine-2-carbonitrile]
IC50 (MIA PaCa-2 cells): 282 nM | 10xLS (MIA PaCa-2 cells): 100 nM | 2xLS (MIA PaCa-2 cells): 3 nM | IC50 (Chk-1 kinase; [1]): 0.35 nM

COc1cc(N2CCNCC2)ccc1-c1cc(Nc2cnc(C#N)cn2)n[nH]1 [Example 46, 5-[[5-(2-methoxy-4-piperazin-1-yl-phenyl)-1H-pyrazol-3-yl]amino]pyrazine-2-carbonitrile]
IC50 (MIA PaCa-2 cells): 442 nM | 10xLS (MIA PaCa-2 cells): <30 nM | 2xLS (MIA PaCa-2 cells): <3 nM | IC50 (Chk-1 kinase): 0.054 nM

CCN1CCC(F)(c2ccc(-c3cc(Nc4cnc(C#N)cn4)n[nH]3)c(OC)c2)CC1 [Example 85, 5-[[5-[4-(1-ethyl-4-fluoro-4-piperidyl)-2-methoxy-phenyl]-1H-pyrazol-3-yl]amino]pyrazine-2-carbonitrile]
IC50 (MIA PaCa-2 cells): 138 nM | 10xLS (MIA PaCa-2 cells): 100 nM | 2xLS (MIA PaCa-2 cells): 3 nM | IC50 (Chk-1 kinase; [1]): 0.25 nM

COc1c(-c2cc(Nc3cnc(C#N)cn3)n[nH]2)ccc(C2CCN(C)CC2)c1Cl [Example 69, 5-[[5-[3-chloro-2-methoxy-4-(1-methyl-4-piperidyl)phenyl]-1H-pyrazol-3-yl]amino]pyrazine-2-carbonitrile]
IC50 (MIA PaCa-2 cells): 2200 nM | 10xLS (MIA PaCa-2 cells): 1000 nM | 2xLS (MIA PaCa-2 cells): 100 nM | IC50 (Chk-1 kinase; [1]): 7.9 nM

COc1cc(OC[C@H]2CCCN2C(C)C)ccc1-c1cc(Nc2cnc(C#N)cn2)n[nH]1 [Example 127, 5-[[5-[4-[[(2R)-1-isopropylpyrrolidin-2-yl]methoxy]-2-methoxy-phenyl]-1H-pyrazol-3-yl]amino]pyrazine-2-carbonitrile]
IC50 (MIA PaCa-2 cells): 169 nM | 10xLS (MIA PaCa-2 cells): <100 nM | 2xLS (MIA PaCa-2 cells): <3 nM | IC50 (Chk-1 kinase; [1]): 0.044 nM

COc1cc(C2CCNCC2)ccc1-c1cc(Nc2cnc(C#N)cn2)n[nH]1 [Example 20, 5-[[5-[2-methoxy-4-(4-piperidyl)phenyl]-1H-pyrazol-3-yl]amino]pyrazine-2-carbonitrile]
IC50 (MIA PaCa-2 cells): 1110 nM | 10xLS (MIA PaCa-2 cells): 100 nM | 2xLS (MIA PaCa-2 cells): ~5 nM | IC50 (Chk-1 kinase; [1]): 0.29 nM

COc1cc(CNC(C)C)ccc1-c1cc(Nc2cnc(C#N)cn2)n[nH]1 [Example 59, 5-[[5-[4-[(isopropylamino)methyl]-2-methoxy-phenyl]-1H-pyrazol-3-yl]amino]pyrazine-2-carbonitrile]
IC50 (MIA PaCa-2 cells): 263 nM | 10xLS (MIA PaCa-2 cells): 100 nM | 2xLS (MIA PaCa-2 cells): 3 nM | IC50 (Chk-1 kinase; [1]): 0.071 nM
